# Measurements from patent US7579475B2, “S-(-)-amlodipine nicotinate and process for the preparation thereof” (Hanlim Pharmaceutical Co., Ltd., priority 2002, dated 2009).
# Key:
# [1] = Photostability test (incandescent lamp, 3 weeks)
# Protocol: 1.0 g of S-(−)-amlodipine besylate prepared, using S-(−)-amlodipine, in accordance with U.S. Pat. No. 4,879,303 and 1.0 g of S-(−)-amlodipine nicotinate dihydrate obtained in Example 1, which were placed in glass schales (100×20 mm), were exposed at 25-30° C. for 3 weeks under an incandescent lamp (220V, 100 W) that was placed at 30 cm above the samples.
# [2] = test system: spontaneously hypertensive rats (SHRs); assay: In vivo anti-hypertensive activity in spontaneously hypertensive rats (tail-cuff systolic blood pressure); parameters: species or system rat; conditions: SHR; for Maximal anti-hypertensive effect (change of systolic blood pressure) / Intensity (maximal effect of S-(−)-amlodipine nicotinate to maximal effect of amlodipine nicotinate) / ED20 (amount necessary for 20% decrease in the blood pressure) / Intensity (reverse ratio of ED20 values relative to amlodipine nicotinate): oral; for Maximal anti-hypertensive effect (change of systolic blood pressure): mean % ± S.E.M.; for Effect on blood pressure (in words): oral, 1, 3 and 10 mg/kg
# Protocol: Male SHRs (Charles Rever Co., Japan) aged 13-14 weeks were used.
# The SHRs having a systolic blood pressure over 170 mmHg were divided into 7 groups, i.e., Test Groups 1 to 3 (for amlodipine nicotinate), Test Groups 4 to 6 (for S-(−)-amlodipine nicotinate) and a Control Group. Each Test Group and Control Group consisted of 6-8 SHRs (n=6-8).
# The test compounds were dissolved in distilled water to prepare test solutions immediately prior to administration. The test solutions of amlodipine nicotinate and S-(−)-amlodipine nicotinate were prepared by dissolving 1, 3, and 10 mg/kg in distilled water (0.5 ml/100 g rat), respectively, and then administered orally to each Test Group. The vehicle (distilled water) was administered to Control Group.
# The systolic blood pressure was measured with Multichannel 8000 (TSE Co., Germany), using a tail-cuff method. That is, the systolic blood pressures of a tail artery of each rat were measured before the administration of the test solutions and after 2, 4, 6, 8, 10, and 24 hours from the administration thereof. In order to facilitate the measurement of blood pressures, the test animals of each Group underwent warming at 37° C. for about 10 minutes before the measurements.
# Statistical analysis of the test results were conducted by an unpaired t-test and ANOVA (one-way analysis of variance) with Sigma Stat program (Jandel Co., USA). The secondary evaluations were conducted by a Dunnett's multiple comparison test.
# [3] = listed as S-(−)-Amlodipine nicotinate, dihydrate
SMILES,"Water contents absorbed during the photostability test ([1]; 25-30° C., 3 weeks under incandescent lamp)",Difference in 1H-NMR before and after photostability test [1],Photostability (overall conclusion) [1],Maximal anti-hypertensive effect (change of systolic blood pressure) ([2]; 1 mg/kg) [%],Intensity (maximal effect of S-(−)-amlodipine nicotinate to maximal effect of amlodipine nicotinate) ([2]; 3 mg/kg),Maximal anti-hypertensive effect (change of systolic blood pressure) ([2]; 3 mg/kg) [%],Intensity (maximal effect of S-(−)-amlodipine nicotinate to maximal effect of amlodipine nicotinate) ([2]; 10 mg/kg),Maximal anti-hypertensive effect (change of systolic blood pressure) ([2]; 10 mg/kg) [%],Effect on blood pressure (in words) [2],ED20 (amount necessary for 20% decrease in the blood pressure) ([2]; dihydrate) [mg/kg],Intensity (reverse ratio of ED20 values relative to amlodipine nicotinate) ([2]; dihydrate),"ED20 (amount necessary for 20% decrease in the blood pressure) [2, 3] [mg/kg]","Intensity (reverse ratio of ED20 values relative to amlodipine nicotinate) [2, 3]",ED20 (amount necessary for 20% decrease in the blood pressure) [2] [mg/kg],Intensity (reverse ratio of ED20 values relative to amlodipine nicotinate) [2],ED20 (amount necessary for 20% decrease in the blood pressure) ([2]; listed as Amlodipine nicotinate) [mg/kg]
CCOC(=O)C1=C(COCCN)NC(C)=C(C(=O)OC)[C@@H]1c1ccccc1Cl.O=S(=O)(O)c1ccccc1 [S-(−)-amlodipine besylate],1.5-2.5,,,,,,,,,,,,,,,
"CCOC(=O)C1=C(COCCN)NC(C)=C(C(=O)OC)C1c1ccccc1Cl (stereo not drawn) [S-(−)-amlodipine nicotinate, S-(−)-amlodipine nicotinate dihydrate]",,no significant difference,improved photostability,−12.4 ± 1.73,1.06,−28.3 ± 3.31,1.07,−43.6 ± 1.65,dose-dependently reduced blood pressures,1.91 ± 0.49,about 1.15,1.91 ± 0.49,1.15,,,
CCOC(=O)C1=C(COCCN)NC(C)=C(C(=O)OC)[C@@H]1c1ccccc1Cl.O=C(O)c1cccnc1 [amlodipine nicotinate],,,,−10.20 ± 2.71,,−26.8 ± 3.22,,−40.9 ± 2.08,dose-dependently reduced blood pressures,,,,,2.19 ± 0.57,1.00,2.19 ± 0.57
